# Measurements taken from US4150023A, “Hydrosoluble rifamycins and process for their preparation” (Intreprinderea de Antibiotice Iasi, priority 1977, dated 1979).
# Structures can show the parent of a compound that is named as a salt.
# System: not listed separately
# Assay: physchem
# Format: physicochemical
# Settings: not given
# Procedure: When the work is carried out as in above mentioned examples, using 2 mol of sodium ethylhexanoate versus 1 mol of rifamycin derivative, the soluble forms of other derivatives, presented in Table 1, are obtained using the specific volumes of solvent, and resulting in the products characterized by the main proprieties tabulated.
row,Solubility soluble form,Structure (SMILES)
1,25000 µg/mL,"CO[C@H]1/C=C/O[C@@]2(C)Oc3c(C)c(O)c4c(O)c(c(C=NO)c(O)c4c3C2=O)NC(=O)/C(C)=C\C=C\[C@H](C)[C@H](O)[C@@H](C)[C@@H](O)[C@@H](C)[C@H](OC(C)=O)[C@@H]1C [Example 8, 3-formylrifamycin SV oxime (K salt)]"
2,over 100 mg/ml,"CO[C@H]1/C=C/O[C@@]2(C)Oc3c(C)c(O)c4c(O)c(c(C=NO)c(O)c4c3C2=O)NC(=O)/C(C)=C\C=C\[C@H](C)[C@H](O)[C@@H](C)[C@@H](O)[C@@H](C)[C@H](OC(C)=O)[C@@H]1C [Example 7, 3-formylrifamycin SV oxime]"

# Same assay, conditions: Solubility as such
row,solubility,Structure (SMILES)
1,920 µg/mL,"CO[C@H]1/C=C/O[C@@]2(C)Oc3c(C)c(O)c4c(O)c(c(C=NNC(=O)c5ccncc5)c(O)c4c3C2=O)NC(=O)/C(C)=C\C=C\[C@H](C)[C@H](O)[C@@H](C)[C@@H](O)[C@@H](C)[C@H](OC(C)=O)[C@@H]1C [3-(isonicotinoylhydrazonomethyl)-rifamycin SV, reference compound]"
2,2950 µg/mL,"CO[C@H]1/C=C/O[C@@]2(C)Oc3c(C)c(O)c4c(O)c(c(C=NOCCBr)c(O)c4c3C2=O)NC(=O)/C(C)=C\C=C\[C@H](C)[C@H](O)[C@@H](C)[C@@H](O)[C@@H](C)[C@H](OC(C)=O)[C@@H]1C [3-(2-bromethyloximinomethyl)-rifamycin SV, reference compound]"
3,120 µg/mL,"CCON=Cc1c2c(O)c3c(O)c(C)c4c(c3c1O)C(=O)[C@@](C)(O/C=C/[C@H](OC)[C@@H](C)[C@@H](OC(C)=O)[C@H](C)[C@H](O)[C@H](C)[C@@H](O)[C@@H](C)/C=C/C=C(/C)C(=O)N2)O4 [3-(ethyloximinomethyl)rifamycin SV, reference compound]"
4,4800 µg/mL,"CO[C@H]1/C=C/O[C@@]2(C)Oc3c(C)c(O)c4c(O)c(c(C=NNC(=O)Cc5ccccc5)c(O)c4c3C2=O)NC(=O)/C(C)=C\C=C\[C@H](C)[C@H](O)[C@@H](C)[C@@H](O)[C@@H](C)[C@H](OC(C)=O)[C@@H]1C [3-(phenylacetylhydrazonomethyl)-rifamycin SV, reference compound]"

# Further lines, the compound ahead of its results:
row,Structure (SMILES),solubility
1,"CO[C@H]1/C=C/O[C@@]2(C)Oc3c(C)c(O)c4c(O)c(c(C=NNc5ccc(-c6ccc(C)cc6)nn5)c(O)c4c3C2=O)NC(=O)/C(C)=C\C=C\[C@H](C)[C@H](O)[C@@H](C)[C@@H](O)[C@@H](C)[C@H](OC(C)=O)[C@@H]1C [3-[3'-(p-tolyl)-pyridazinyl-6'-hydrazonomethyl]-rifamycin SV, reference compound]",270 µg/mL
2,"CO[C@H]1/C=C/O[C@@]2(C)Oc3c(C)c(O)c4c(O)c(c(C=NNC(=O)COc5ccccc5)c(O)c4c3C2=O)NC(=O)/C(C)=C\C=C\[C@H](C)[C@H](O)[C@@H](C)[C@@H](O)[C@@H](C)[C@H](OC(C)=O)[C@@H]1C [3-phenoxyacetylhydrazonomethyl)-rifamysin SV, reference compound]",2750 µg/mL
3,"CO[C@H]1/C=C/O[C@@]2(C)Oc3c(C)c(O)c4c(O)c(c(C=NNc5ccc(-c6ccc(C)c(C)c6)nn5)c(O)c4c3C2=O)NC(=O)/C(C)=C\C=C\[C@H](C)[C@H](O)[C@@H](C)[C@@H](O)[C@@H](C)[C@H](OC(C)=O)[C@@H]1C [3-[3'-(3"",4""-dimethylphenyl)-pyridazinyl-6'-hydrazonomethyl]-rifamycin SV, reference compound]",< 100 µg/mL
4,"CO[C@H]1/C=C/O[C@@]2(C)Oc3c(C)c(O)c4c(O)c(c(C=NO)c(O)c4c3C2=O)NC(=O)/C(C)=C\C=C\[C@H](C)[C@H](O)[C@@H](C)[C@@H](O)[C@@H](C)[C@H](OC(C)=O)[C@@H]1C [3-formylrifamycin SV oxime, reference compound]",5500 µg/mL

# Same assay, conditions: Solubility soluble form
row,solubility,Structure (SMILES)
1,> 100000 µg/mL,"CCON=Cc1c2c(O)c3c(O)c(C)c4c(c3c1O)C(=O)[C@@](C)(O/C=C/[C@H](OC)[C@@H](C)[C@@H](OC(C)=O)[C@H](C)[C@H](O)[C@H](C)[C@@H](O)[C@@H](C)/C=C/C=C(/C)C(=O)N2)O4 [Example 9, 3-(ethyloximinomethyl)rifamycin SV]"
2,540 µg/mL,"CO[C@H]1/C=C/O[C@@]2(C)Oc3c(C)c(O)c4c(O)c(c(C=NNc5ccc(-c6ccc(C)c(C)c6)nn5)c(O)c4c3C2=O)NC(=O)/C(C)=C\C=C\[C@H](C)[C@H](O)[C@@H](C)[C@@H](O)[C@@H](C)[C@H](OC(C)=O)[C@@H]1C [Example 12, 3-[3'-(3"",4""-dimethylphenyl)-pyridazinyl-6'-hydrazonomethyl]-rifamycin SV]"
3,168000 µg/mL,"CO[C@H]1/C=C/O[C@@]2(C)Oc3c(C)c(O)c4c(O)c(c(C=NNC(=O)c5ccncc5)c(O)c4c3C2=O)NC(=O)/C(C)=C\C=C\[C@H](C)[C@H](O)[C@@H](C)[C@@H](O)[C@@H](C)[C@H](OC(C)=O)[C@@H]1C [Example 13, 3-(isonicotinoylhydrazonomethyl)-rifamycin SV]"

# More lines, now with the values behind:
row,Structure (SMILES),solubility
1,CO[C@H]1/C=C/O[C@@]2(C)Oc3c(C)c(O)c4c(O)c(c(C=NNC(=O)COc5ccccc5)c(O)c4c3C2=O)NC(=O)/C(C)=C\C=C\[C@H](C)[C@H](O)[C@@H](C)[C@@H](O)[C@@H](C)[C@H](OC(C)=O)[C@@H]1C [Example 15],128000 µg/mL
2,"CO[C@H]1/C=C/O[C@@]2(C)Oc3c(C)c(O)c4c(O)c(c(C=NOCCBr)c(O)c4c3C2=O)NC(=O)/C(C)=C\C=C\[C@H](C)[C@H](O)[C@@H](C)[C@@H](O)[C@@H](C)[C@H](OC(C)=O)[C@@H]1C [Example 10, 3-(2-bromethyloximinomethyl)-rifamycin SV]",> 100000 µg/mL
3,"CO[C@H]1/C=C/O[C@@]2(C)Oc3c(C)c(O)c4c(O)c(c(C=NNC(=O)Cc5ccccc5)c(O)c4c3C2=O)NC(=O)/C(C)=C\C=C\[C@H](C)[C@H](O)[C@@H](C)[C@@H](O)[C@@H](C)[C@H](OC(C)=O)[C@@H]1C [Example 14, 3-(phenylacetylhydrazonomethyl)-rifamycin SV]",71000 µg/mL
4,"CO[C@H]1/C=C/O[C@@]2(C)Oc3c(C)c(O)c4c(O)c(c(C=NNc5ccc(-c6ccc(C)cc6)nn5)c(O)c4c3C2=O)NC(=O)/C(C)=C\C=C\[C@H](C)[C@H](O)[C@@H](C)[C@@H](O)[C@@H](C)[C@H](OC(C)=O)[C@@H]1C [Example 11, 3-[3'-(p-tolyl)-pyridazinyl-6'-hydrazonomethyl]-rifamycin SV]",540 µg/mL

# System: ill subjects treated with rifampicin
# Assay: not given
# Settings: cited from earlier work
row,Structure (SMILES),unsuccessful therapeutic treatments caused by hepatobiliar alterations
1,CO[C@H]1/C=C/O[C@@]2(C)Oc3c(C)c(O)c4c(O)c(c(/C=N/N5CCN(C)CC5)c(O)c4c3C2=O)NC(=O)/C(C)=C\C=C\[C@H](C)[C@H](O)[C@@H](C)[C@@H](O)[C@@H](C)[C@H](OC(C)=O)[C@@H]1C [rifampicin],over 10%
